Results published in patent US4870060A, “Derivatives of γ-cylodextrin” (Janssen Pharmaceutica, priority 1988, dated 1989).
In brackets after ≈: the same amount, converted by molar mass. One block for each molecule: values may come before it.

Assays:
[1] = content of progesteron dissolved in solutions of γ-CD derivatives (phosphate buffer pH 7.4, 5 days shaking at 25° C., HPLC); format: physicochemical; conditions: phosphate buffer pH 7.4, 25° C.
Experimental: (§1) Starting from a 5% stock solution of a particular γ-CD derivative in a phosphate buffer of pH 7.4, a dilution series was obtained with concentrations varying of from 0% to 5% with 0.5% steps. 3 ml of these solutions were pipetted into a closed container containing an appropriate amount of progesteron. After 5 days shaking at 25° C., the thus obtained mixture was filtered over a membrane filter (pore diameter: 0.22 μm), and the content of progesteron was determined with high pressure liquid chromatography (using a column of 25 cm length; 5 mm internal diameter; packed with 5 μm ODS-hypersil (RP-18); eluent: acetonitrile/water; U.V. detection). The results of these concentration measurements for a number of the γ-CD derivatives of the present invention and for unsubstituted γ-CD gathered in the following table.

[2] = content of 3-chloro-6-[3,6-dihydro-4-(3-methylphenyl)-1(2H)-pyridinyl]pyridazine in solutions of γ-CD derivatives (procedure of example 4); format: physicochemical
Experimental: as §1
Following the procedures described in example 4 the content of 3-chloro-6-[3,6-dihydro-4-(3-methylphenyl)-1(2H)-pyridinyl]pyridazine was determined in solutions containing various concentrations of γ-CD derivatives. Said pyridazine compound is described in Published Europ. Pat. Appl. No. 0,156,433 as a useful anti-viral agent.

[3] = cited from earlier work
[4] = 1% γ-CD or derivative (weight by volume)
[5] = 2.5% γ-CD or derivative (weight by volume)
[6] = 5% γ-CD or derivative (weight by volume)

solubility thermodynamic at 120 h ([1]; aqueous buffer, 0% γ-CD derivative (weight by volume)): 5.9 µg/mL (≈ 18.8 µM)
Compound: CC(=O)[C@H]1CC[C@H]2[C@@H]3CCC4=CC(=O)CC[C@]4(C)[C@H]3CC[C@]12C [progesteron]

Compound: OC[C@H]1O[C@@H]2O[C@H]3[C@H](O)[C@@H](O)[C@@H](O[C@H]4[C@H](O)[C@@H](O)[C@@H](O[C@H]5[C@H](O)[C@@H](O)[C@@H](O[C@H]6[C@H](O)[C@@H](O)[C@@H](O[C@H]7[C@H](O)[C@@H](O)[C@@H](O[C@H]8[C@H](O)[C@@H](O)[C@@H](O[C@H]9[C@H](O)[C@@H](O)[C@@H](O[C@H]1[C@H](O)[C@H]2O)O[C@@H]9CO)O[C@@H]8CO)O[C@@H]7CO)O[C@@H]6CO)O[C@@H]5CO)O[C@@H]4CO)O[C@@H]3CO [unsubstituted γ-CD, γ-cyclodextrin]
content of progesteron ([1]; 0.5% γ-CD or derivative (weight by volume)): 425 µg/mL
content of progesteron [1, 4]: 343 µg/mL
content of progesteron ([1]; 1.5% γ-CD or derivative (weight by volume)): 275 µg/mL
content of progesteron ([1]; 2% γ-CD or derivative (weight by volume)): 203 µg/mL
content of progesteron [1, 5]: 163 µg/mL
content of progesteron ([1]; 3% γ-CD or derivative (weight by volume)): 93 µg/mL
content of progesteron ([1]; 3.5% γ-CD or derivative (weight by volume)): 60 µg/mL
content of progesteron ([1]; 4% γ-CD or derivative (weight by volume)): 54 µg/mL
content of progesteron ([1]; 4.5% γ-CD or derivative (weight by volume)): 46 µg/mL
content of progesteron [1, 6]: 45 µg/mL
content of 3-chloro-6-[3,6-dihydro-4-(3-methylphenyl)-1(2H)-pyridinyl]pyridazine [2, 4]: 2.0 µg/mL
content of 3-chloro-6-[3,6-dihydro-4-(3-methylphenyl)-1(2H)-pyridinyl]pyridazine [2, 5]: 0.8 µg/mL
content of 3-chloro-6-[3,6-dihydro-4-(3-methylphenyl)-1(2H)-pyridinyl]pyridazine [2, 6]: 0.8 µg/mL
water solubility [3]: excellent water solubility

solubility thermodynamic at 120 h ([2]; phosphate buffer ph 7.4, pH 7.4, aqueous buffer, 0% γ-CD derivative (weight by volume)): 0.4 µg/mL (≈ 1.4 µM)
Compound: Cc1cccc(C2=CCN(c3ccc(Cl)nn3)CC2)c1 [3-chloro-6-[3,6-dihydro-4-(3-methylphenyl)-1(2H)-pyridinyl]pyridazine]
